Measured values published in patent US12053470B2, “Pharmaceutical combination comprising an ALK inhibitor and a SHP2 inhibitor” (Novartis AG, priority 2017, dated 2024).

Test system: Ceritinib resistant MGH049 cells
Assay: Cell colony formation assay with ceritinib resistant MGH049 cells;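 note: tested compounds are SHP2 inhibitors given alone, colonies fixed and crystal violet stained, DMSO reference taken as the mean of six readings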
Format: cell-based, human
Conditions: Homo sapiens, 168 h; compound of Table 1 (3 μM) alone, 7 days; normalized to DMSO without compound = 100; read-out: Normalized Crystal Violet abs. (590 nm) DMSO

First: CC1(N)CCN(c2cnc(Sc3cccc(NC(=O)c4c(O)nc5ccccn5c4=O)c3Cl)c(N)n2)CC1 [Compound No. 44, N-(3-((3-amino-5-(4-amino-4-methylpiperidin-1-yl)pyrazin-2-yl)thio)-2-chlorophenyl)-2-hydroxy-4-oxo-4H-pyrido[1,2-a]pyrimidine-3-carboxamide]
Second: CC1(CN)CCN(c2cnc(Sc3cccc(NC(=O)c4c(O)nc5ccccn5c4=O)c3Cl)c(N)n2)CC1 [compound 50, N-(3-((3-amino-5-(4-(aminomethyl)-4-methylpiperidin-1-yl)pyrazin-2-yl)thio)-2-chlorophenyl)-2-hydroxy-4-oxo-4H-pyrido[1,2-a]pyrimidine-3-carboxamide]
The activity at 3 µM of the first is lower: 37% for the first, 98.9% for the second.

Going from `NCC1(c2ccccc2)CCN(c2cnc(-c3cccc(Cl)c3Cl)c(N)n2)CC1` [compound 2, 6-(4-(aminomethyl)-4-phenylpiperidin-1-yl)-3-(2,3-dichlorophenyl)pyrazin-2-amine] to `CC1(CN)CCN(c2nc3[nH]cc(-c4cccc(Cl)c4Cl)c3c(=O)[nH]2)CC1` [compound 38, 2-(4-(aminomethyl)-4-methylpiperidin-1-yl)-5-(2,3-dichlorophenyl)-3,7-dihydro-4H-pyrrolo[2,3-d]pyrimidin-4-one], the activity at 3 µM rises from 67% to 83.9%.

Going from `Nc1nc(N2CCC3(CCC[C@H]3N)CC2)cnc1Sc1ccnc(N)c1Cl` [compound 6, (R)-8-(6-amino-5-((2-amino-3-chloropyridin-4-yl)thio)pyrazin-2-yl)-8-azaspiro[4.5]decan-1-amine] to `Nc1nc(N2CCC3(CC2)COC[C@H]3N)cnc1Sc1ccnc(N)c1Cl` [compound 11, (S)-8-(6-amino-5-((2-amino-3-chloropyridin-4-yl)thio)pyrazin-2-yl)-2-oxa-8-azaspiro[4.5]decan-4-amine], the activity at 3 µM rises from 44.5% to 58.9%.

First: C[C@H]1C[C@@H](N)C2(CCN(c3cnc(Sc4ccnc(N)c4Cl)c(N)n3)CC2)C1 [compound 12, (1R,3R)-8-(6-amino-5-((2-amino-3-chloropyridin-4-yl)thio)pyrazin-2-yl)-3-methyl-8-azaspiro[4.5]decan-1-amine]
Second: C[C@@H]1OCC2(CCN(c3cnc(Sc4ccnc(N)c4Cl)c(N)n3)CC2)[C@@H]1N [compound 16, (3S,4S)-8-(6-amino-5-((2-amino-3-chloropyridin-4-yl)thio)pyrazin-2-yl)-3-methyl-2-oxa-8-azaspiro[4.5]decan-4-amine]
The activity at 3 µM of the first is lower: 30.1% for the first, 34.4% for the second.

Compared with `Nc1nc(N2CCC3(CC2)C[C@H](O)C[C@H]3N)cnc1Sc1ccnc(Cl)c1Cl` [compound 13, (2S,4R)-4-amino-8-(6-amino-5-((2,3-dichloropyridin-4-yl)thio)pyrazin-2-yl)-8-azaspiro[4.5]decan-2-ol], `Nc1nc(N2CCC3(CC2)C[C@@H](O)C[C@H]3N)cnc1Sc1ccnc(Cl)c1Cl` [compound 14, (2R,4R)-4-amino-8-(6-amino-5-((2,3-dichloropyridin-4-yl)thio)pyrazin-2-yl)-8-azaspiro[4.5]decan-2-ol] is higher in activity at 3 µM: 42.8% for the first, 51.2% for the second.

Going from `C[C@@H]1OCC2(CCN(c3nc(N)c(Sc4cccnc4C(F)(F)F)c(=O)n3C)CC2)[C@@H]1N` [compound 25, 6-amino-2-((3S,4S)-4-amino-3-methyl-2-oxa-8-azaspiro[4.5]decan-8-yl)-3-methyl-5-((2-(trifluoromethyl)pyridin-3-yl)thio)pyrimidin-4(3H)-one] to `CC[C@@H]1OCC2(CCN(c3nc(N)c(Sc4cccnc4C(F)(F)F)c(=O)n3C)CC2)[C@@H]1N` [compound 31, 6-amino-2-((3S,4S)-4-amino-3-ethyl-2-oxa-8-azaspiro[4.5]decan-8-yl)-3-methyl-5-((2-(trifluoromethyl)pyridin-3-yl)thio)pyrimidin-4(3H)-one], the activity at 3 µM falls from 52.5% to 36.4%.

Going from `C[C@@H]1OCC2(CCN(c3nc(N)c(Sc4cccc(Cl)c4Cl)c(=O)n3C)CC2)[C@@H]1N` [compound 27, 6-amino-2-((3S,4S)-4-amino-3-methyl-2-oxa-8-azaspiro[4.5]decan-8-yl)-5-((2,3-dichlorophenyl)thio)-3-methylpyrimidin-4(3H)-one] to `COc1cccc(Sc2c(N)nc(N3CCC4(CC3)CO[C@@H](C)[C@H]4N)n(C)c2=O)c1Cl` [compound 30, 6-amino-2-((3S,4S)-4-amino-3-methyl-2-oxa-8-azaspiro[4.5]decan-8-yl)-5-((2-chloro-3-methoxyphenyl)thio)-3-methylpyrimidin-4(3H)-one], the activity at 3 µM rises from 37.8% to 39.4%.

Compared with `C[C@H]1C[C@@H](N)C2(CCN(c3nc(N)c(Sc4ccncc4C(F)(F)F)c(=O)n3C)CC2)C1` [compound 28, 6-amino-2-((1R,3R)-1-amino-3-methyl-8-azaspiro[4.5]decan-8-yl)-3-methyl-5-((3-(trifluoromethyl)pyridin-4-yl)thio)pyrimidin-4(3H)-one], `C[C@@H]1OCC2(CCN(c3nc(N)c(Sc4ccncc4C(F)(F)F)c(=O)n3C)CC2)[C@@H]1N` [compound 34, 6-amino-2-((3S,4S)-4-amino-3-methyl-2-oxa-8-azaspiro[4.5]decan-8-yl)-3-methyl-5-((3-(trifluoromethyl)pyridin-4-yl)thio)pyrimidin-4(3H)-one] is higher in activity at 3 µM: 28.1% for the first, 43.6% for the second.

Going from `C[C@H]1C[C@@H](N)C2(CCN(c3nc(N)c(-c4cccc(Cl)c4Cl)c(=O)n3C)CC2)C1` [compound 29, 6-amino-2-((1R,3R)-1-amino-3-methyl-8-azaspiro[4.5]decan-8-yl)-5-(2,3-dichlorophenyl)-3-methylpyrimidin-4(3H)-one] to `C[C@H]1C[C@@H](N)C2(CCN(c3nc(N)c(-c4ccc(Cl)cc4)c(=O)n3C)CC2)C1` [compound 35, 6-amino-2-((1R,3R)-1-amino-3-methyl-8-azaspiro[4.5]decan-8-yl)-5-(4-chlorophenyl)-3-methylpyrimidin-4(3H)-one], the activity at 3 µM rises from 25.1% to 32.2%.

Compared with `C[C@@H]1OCC2(CCN(c3nc(N)c(Sc4cccc(N)c4C(F)(F)F)c(=O)n3C)CC2)[C@@H]1N` [compound 32, 6-amino-5-((3-amino-2-(trifluoromethyl)phenyl)thio)-2-((3S,4S)-4-amino-3-methyl-2-oxa-8-azaspiro[4.5]decan-8-yl)-3-methylpyrimidin-4(3H)-one], `Cn1c(N2CCC3(CC2)CC(F)(F)C[C@H]3N)nc(N)c(Sc2ccnc(N)c2Cl)c1=O` [compound 33, (R)-6-amino-2-(1-amino-3,3-difluoro-8-azaspiro[4.5]decan-8-yl)-5-((2-amino-3-chloropyridin-4-yl)thio)-3-methylpyrimidin-4(3H)-one] is higher in activity at 3 µM: 58.2% for the first, 73.3% for the second.

Going from `C[C@H]1C[C@@H](N)C2(CCN(c3nc(N)c(-c4ccccc4)c(=O)n3C)CC2)C1` [compound 36, 6-amino-2-((1R,3R)-1-amino-3-methyl-8-azaspiro[4.5]decan-8-yl)-3-methyl-5-phenylpyrimidin-4(3H)-one] to `Cc1nc(N)ccc1-c1[nH]nc2nc(N3CCC4(CC3)C[C@@H](C)C[C@H]4N)n(C)c(=O)c12` [compound 40, 3-(6-amino-2-methylpyridin-3-yl)-6-((1R,3R)-1-amino-3-methyl-8-azaspiro[4.5]decan-8-yl)-5-methyl-2,5-dihydro-4H-pyrazolo[3,4-d]pyrimidin-4-one], the activity at 3 µM falls from 23.8% to 22.4%.

Going from `C[C@@H]1OCC2(CCN(c3cnc4c(-c5ccnc(Cl)c5Cl)n[nH]c4n3)CC2)[C@@H]1N` [compound 39, (3S,4S)-8-(3-(2,3-dichloropyridin-4-yl)-1H-pyrazolo[3,4-b]pyrazin-6-yl)-3-methyl-2-oxa-8-azaspiro[4.5]decan-4-amine] to `COc1nccc(-c2c[nH]c3nc(N4CCC5(CC4)CO[C@@H](C)[C@H]5N)n(C)c(=O)c23)c1Cl` [compound 43, 2-((3S,4S)-4-amino-3-methyl-2-oxa-8-azaspiro[4.5]decan-8-yl)-5-(3-chloro-2-methoxypyridin-4-yl)-3-methyl-3,7-dihydro-4H-pyrrolo[2,3-d]pyrimidin-4-one], the activity at 3 µM falls from 97.9% to 95.6%.

Going from `Cc1nc(N)ccc1-c1[nH]nc2nc(N3CCC4(CC3)CC(F)(F)C[C@H]4N)n(C)c(=O)c12` [compound 41, (R)-3-(6-amino-2-methylpyridin-3-yl)-6-(1-amino-3,3-difluoro-8-azaspiro[4.5]decan-8-yl)-5-methyl-2,5-dihydro-4H-pyrazolo[3,4-d]pyrimidin-4-one] to `Nc1nc(N2CCC3(CC2)CC(F)(F)C[C@H]3N)cnc1Sc1cccc(NC(=O)c2c(O)nc3n(c2=O)CCCC3)c1Cl` [compound 49, (R)-N-(3-((3-amino-5-(1-amino-3,3-difluoro-8-azaspiro[4.5]decan-8-yl)pyrazin-2-yl)thio)-2-chlorophenyl)-2-hydroxy-4-oxo-6,7,8,9-tetrahydro-4H-pyrido[1,2-a]pyrimidine-3-carboxamide], the activity at 3 µM rises from 25.3% to 26.5%.

First: C[C@@H]1OCC2(CCN(c3cnc(Sc4cccc(NC(=O)c5c(O)nc6n(c5=O)CCCC6)c4Cl)c(N)n3)CC2)[C@@H]1N [compound 45, N-(3-((3-amino-5-((3S,4S)-4-amino-3-methyl-2-oxa-8-azaspiro[4.5]decan-8-yl)pyrazin-2-yl)thio)-2-chlorophenyl)-2-hydroxy-4-oxo-6,7,8,9-tetrahydro-4H-pyrido[1,2-a]pyrimidine-3-carboxamide]
Second: Nc1nc(N2CCC3(CCC[C@H]3N)CC2)cnc1Sc1cccc(NC(=O)c2c(O)nc3n(c2=O)CCCC3)c1Cl [compound 47, (R)-N-(3-((3-amino-5-(1-amino-8-azaspiro[4.5]decan-8-yl)pyrazin-2-yl)thio)-2-chlorophenyl)-2-hydroxy-4-oxo-6,7,8,9-tetrahydro-4H-pyrido[1,2-a]pyrimidine-3-carboxamide]
The activity at 3 µM of the first is lower: 12.1% for the first, 14.8% for the second.

`CC1(CN)CCN(c2cnc(Sc3cccc(NC(=O)c4c(O)nc5n(c4=O)CCCC5)c3Cl)c(N)n2)CC1` [compound 48, N-(3-((3-amino-5-(4-(aminomethyl)-4-methylpiperidin-1-yl)pyrazin-2-yl)thio)-2-chlorophenyl)-2-hydroxy-4-oxo-6,7,8,9-tetrahydro-4H-pyrido[1,2-a]pyrimidine-3-carboxamide] was tested, and the activity at 3 µM was 52.3%.
